Measured values published in EPA's ToxValDB 9.5 (doi:10.2903/j.efsa.2012.2799).

Legend:
[1] = tested on: Canidae; details: Dog Other
[2] = tested on: Rattus norvegicus
[3] = tested on: Oryctolagus sp.
[4] = tested on: Mus musculus; details: short-term; duration: 14 days

## O=C(O)COC(=O)c1cc(Oc2ccc(C(F)(F)F)cc2Cl)ccc1[N+](=O)[O-]
[1]; subchronic, duration: 1 months
  NOAEL: 60 mg/kg-day

## S=C1NCCN1 [4,5-Dihydro-2-mercaptoimidazole]
[2]; developmental, development
  NOAEL: 5 mg/kg-day

## Cc1ccc(N=CN(C)C=Nc2ccc(C)cc2C)c(C)c1 [Amitraz]
[1]; chronic, duration: 2 years
  NOAEL: 1 mg/kg-day
[1]; subchronic, duration: 90 days
  NOAEL: 1 mg/kg-day

## CCNc1nc(Cl)nc(NC(C)C)n1 [Atrazine]
[2]; reproduction developmental
  NOAEL: 2.5 mg/kg-day

## c1nc[n]([Sn]([CH]2CCCCC2)([CH]2CCCCC2)[CH]2CCCCC2)n1 [Azocyclotin]
[3]; reproduction developmental
  NOAEL: 2 mg/kg-day

## CC(C)N1C(=O)c2ccccc2NS1(=O)=O [Bentazone]
[2]; subchronic, duration: 90 days
  NOAEL: 25 mg/kg-day

## N#Cc1c(Cl)c(Cl)c(Cl)c(C#N)c1Cl [Chlorothalonil]
[2]; repeat dose other
  NOAEL: 60 mg/kg-day

## COC(=O)c1c(Cl)c(Cl)c(C(=O)OC)c(Cl)c1Cl [Chlorthal-dimethyl]
[2]; subchronic, duration: 90 days
  NOAEL: 50 mg/kg-day

## CN/C(=N\[N+](=O)[O-])NCc1cnc(Cl)s1 [Clothianidin]
[3]; reproduction developmental
  NOAEL: 10 mg/kg-day
[2]; reproduction developmental
  NOAEL: 10 mg/kg-day

## O=C(O)C1(C(=O)Nc2ccc(Cl)cc2Cl)CC1 [Cyclanilide]
[3]; reproduction developmental
  NOAEL: 3 mg/kg-day

## C1CC[CH]([Sn+]([CH]2CCCCC2)[CH]2CCCCC2)CC1.[OH-] [Cyhexatin]
[3]; reproduction developmental
  NOAEL: 2 mg/kg-day

## CC(Oc1ccc(Oc2ccc(Cl)cc2Cl)cc1)C(=O)O (configuration not stated) [Diclofop]
[3]; reproduction developmental
  NOAEL: 3 mg/kg-day

## OC(c1ccc(Cl)cc1)(c1ccc(Cl)cc1)C(Cl)(Cl)Cl [Dicofol]
[2]; acute
  NOAEL: 15 mg/kg-day

## COC[C@H](C)N(C(=O)CCl)c1c(C)csc1C [Dimethenamid-P]
[2]; short-term, duration: 4 days
  NOAEL: 25 mg/kg-day

## CC1=C(C)S(=O)(=O)CCS1(=O)=O [Dimethipin]
[3]; reproduction developmental
  NOAEL: 20 mg/kg-day

## CC(C)(C)[C@@H](O)/C(=C\c1ccc(Cl)cc1Cl)n1cncn1 [Diniconazole-M]
[2]; reproduction developmental
  NOAEL: 5 mg/kg-day

## CCOP(=S)(OCC)SCCSCC [Disulfoton]
[2]; acute
  NOAEL: 0.3 mg/kg-day

## CCOc1ccc2c(c1)C(C)=CC(C)(C)N2 [Ethoxyquin]
[1]; acute
  NOAEL: 50 mg/kg-day

## CC1(c2ccc(Oc3ccccc3)cc2)OC(=O)N(Nc2ccccc2)C1=O (configuration not stated) [Famoxadone]
[4]
  NOAEL: 20 mg/kg-day

## O=C(Nc1ccccc1)Nc1ccnc(Cl)c1 [Forchlorfenuron]
[3]; reproduction developmental
  NOAEL: 100 mg/kg-day

## CCOP(=O)(SC(C)CC)N1CCSC1=O (configuration not stated) [Fosthiazate]
[1]; chronic, duration: 1 years
  NOAEL: 0.5 mg/kg-day
[1]; subchronic, duration: 90 days
  NOAEL: 0.5 mg/kg-day

## COC(=O)N(C(=O)N1CO[C@@]2(C(=O)OC)Cc3cc(Cl)ccc3C2=N1)c1ccc(OC(F)(F)F)cc1 [Indoxacarb]
[2]; acute
  NOAEL: 12.5 mg/kg-day

## ClC1C(Cl)C(Cl)C(Cl)C(Cl)C1Cl (configuration not stated) [Lindane]
[3]; developmental, development
  NOAEL: 5 mg/kg-day

## CON(C)C(=O)Nc1ccc(Cl)c(Cl)c1 [Linuron]
[3]; developmental, development
  NOAEL: 10 mg/kg-day

## COCC(=O)N(c1c(C)cccc1C)[C@H](C)C(=O)OC [Metalaxyl-M]
[2]; developmental, development
  NOAEL: 50 mg/kg-day

## COc1cccc(C(=O)NN(C(=O)c2cc(C)cc(C)c2)C(C)(C)C)c1C [Methoxyfenozide]
[1]; short-term, duration: 2 weeks
  NOAEL: 20 mg/kg-day

## C[n+]1ccc(-c2cc[n+](C)cc2)cc1 [Paraquat]
[1]; subchronic, duration: 90 days
  NOAEL: 0.5 mg/kg-day

## CCOP(=S)(OCC)Oc1ccc([N+](=O)[O-])cc1 [Parathion]
[2]; acute
  NOAEL: 0.5 mg/kg-day

## CCOP(=S)(OCC)SCSCC [Phorate]
[2]; acute
  NOAEL: 0.3 mg/kg-day

## CC12CC1(C)C(=O)N(c1cc(Cl)cc(Cl)c1)C2=O (configuration not stated) [Procymidone]
[2]; developmental, development
  NOAEL: 3.5 mg/kg-day

## CCCSP(=O)(OCC)Oc1ccc(Br)cc1Cl (configuration not stated) [Profenofos]
[2]; acute
  NOAEL: 100 mg/kg-day

## CC(C)N(C(=O)CCl)c1ccccc1 [Propachlor]
[3]; developmental, development
  NOAEL: 58 mg/kg-day

## COC(=O)N(OC)c1ccccc1COc1ccn(-c2ccc(Cl)cc2)n1 [Pyraclostrobin]
[3]; developmental, development
  NOAEL: 3 mg/kg-day

## CCNc1nc(Cl)nc(NCC)n1 [Simazine]
[2]; acute
  NOAEL: 2.5 mg/kg-day

## CS(=O)(=O)c1ccc(C(=O)C2C(=O)CCCC2=O)c(Cl)c1COCC(F)(F)F [Tembotrione]
[3]; developmental, development
  NOAEL: 1 mg/kg-day

## CCOP(=S)(OCC)SCSC(C)(C)C [Terbufos]
[2]; acute
  NOAEL: 0.2 mg/kg-day

## CN1COCN(Cc2cnc(Cl)s2)/C1=N/[N+](=O)[O-] [Thiamethoxam]
[3]; developmental, development
  NOAEL: 50 mg/kg-day

## O=C(Nc1ccccc1)Nc1cnns1 [Thidiazuron]
[3]; developmental, development
  NOAEL: 25 mg/kg-day

## CCN(CC)C(=O)SCc1ccc(Cl)cc1 [Thiobencarb]
[2]; developmental, development
  NOAEL: 25 mg/kg-day

## Cc1cc(Cl)ccc1OCCCC(=O)O [Thitrol]
[3]; developmental, development
  NOAEL: 5 mg/kg-day

## CCOC(=O)CSc1nc(C(C)(C)C)nn1C(=O)N(C)C [Triazamate]
[1]; acute
  NOAEL: 1.5 mg/kg-day

## CC(=O)[O][Sn]([c]1ccccc1)([c]1ccccc1)[c]1ccccc1 [Triphenyltin acetate]
[3]; reproduction developmental
  NOAEL: 0.1 mg/kg-day

## [OH-].c1cc[c]([Sn+]([c]2ccccc2)[c]2ccccc2)cc1 [Triphenyltin hydroxide]
[3]; reproduction developmental
  NOAEL: 0.1 mg/kg-day

## C=CC1(C)OC(=O)N(c2cc(Cl)cc(Cl)c2)C1=O (configuration not stated) [Vinclozolin]
[2]; developmental, development
  NOAEL: 6 mg/kg-day
